From ChEMBL document CHEMBL1135848, “Novel substituted 4-aminomethylpiperidines as potent and selective human beta3-agonists. Part 2: arylethanolaminomethylpiperidines” (Bioorg Med Chem Lett, 2002)

How the values were obtained:
[1] = biological target: T1, Beta-3 adrenergic receptor (Homo sapiens, UniProt P13945); assay: Beta-3 adrenergic receptor agonist activity was determined by a measurement of increased cAMP levels in CHO cells expressing human Beta-3-adrenoceptor; IA is Inactive; format: functional, cell-based
Target sequence in this assay (P13945 whole entry): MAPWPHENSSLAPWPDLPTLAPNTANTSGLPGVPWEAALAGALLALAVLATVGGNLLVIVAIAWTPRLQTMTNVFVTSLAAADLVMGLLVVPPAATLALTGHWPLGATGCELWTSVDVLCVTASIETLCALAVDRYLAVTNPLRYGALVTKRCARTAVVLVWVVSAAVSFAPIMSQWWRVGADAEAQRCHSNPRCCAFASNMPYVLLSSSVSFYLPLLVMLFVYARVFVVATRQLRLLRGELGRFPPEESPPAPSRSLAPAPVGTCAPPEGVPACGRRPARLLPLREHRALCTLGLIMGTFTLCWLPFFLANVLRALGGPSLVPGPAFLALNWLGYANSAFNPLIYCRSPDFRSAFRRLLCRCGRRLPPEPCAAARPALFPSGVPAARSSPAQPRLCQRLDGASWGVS

[2] = biological target: T2, Beta-1 adrenergic receptor (Homo sapiens, UniProt P08588); assay: (§1) Binding affinity of compound against Beta-1 adrenergic receptor was determined
Target sequence in this assay (P08588 whole entry): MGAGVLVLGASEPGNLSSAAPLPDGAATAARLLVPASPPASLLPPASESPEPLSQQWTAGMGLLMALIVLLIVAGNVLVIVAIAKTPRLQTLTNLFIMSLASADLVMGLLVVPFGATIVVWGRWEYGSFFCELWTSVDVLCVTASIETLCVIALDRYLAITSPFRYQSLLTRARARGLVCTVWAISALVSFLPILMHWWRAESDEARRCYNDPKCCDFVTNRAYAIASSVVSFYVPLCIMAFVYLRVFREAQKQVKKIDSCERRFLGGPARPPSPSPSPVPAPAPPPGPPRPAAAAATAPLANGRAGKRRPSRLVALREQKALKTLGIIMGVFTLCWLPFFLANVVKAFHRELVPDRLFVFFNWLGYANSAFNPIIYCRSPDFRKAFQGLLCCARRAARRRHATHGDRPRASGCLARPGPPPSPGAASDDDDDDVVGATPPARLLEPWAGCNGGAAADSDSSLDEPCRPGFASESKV

[3] = biological target: T2, Beta-1 adrenergic receptor; assay: Beta-1 adrenergic receptor agonist activity as increased cAMP levels in CHO cells expressing human Beta-1-adrenoceptor; format: functional, cell-based
Target sequence in this assay (P08588 whole entry): as above

[4] = biological target: T3, Beta-2 adrenergic receptor (Homo sapiens, UniProt P07550); assay: Binding affinity of compound against Beta-2 adrenergic receptor was determined
T3 sequence (P07550 whole entry): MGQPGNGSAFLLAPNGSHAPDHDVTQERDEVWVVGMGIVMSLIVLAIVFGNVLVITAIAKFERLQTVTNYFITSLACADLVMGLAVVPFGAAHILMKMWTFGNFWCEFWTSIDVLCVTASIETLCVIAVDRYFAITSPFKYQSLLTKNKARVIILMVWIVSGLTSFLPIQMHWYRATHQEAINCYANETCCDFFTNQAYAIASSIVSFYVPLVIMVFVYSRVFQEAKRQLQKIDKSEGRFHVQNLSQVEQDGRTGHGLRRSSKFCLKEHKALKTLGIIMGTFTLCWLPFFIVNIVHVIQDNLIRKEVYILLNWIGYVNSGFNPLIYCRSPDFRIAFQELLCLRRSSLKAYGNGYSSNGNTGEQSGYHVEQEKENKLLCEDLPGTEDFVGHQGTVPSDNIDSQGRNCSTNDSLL

[5] = biological target: T3, Beta-2 adrenergic receptor; assay: Beta-2 adrenergic receptor agonist activity as increased cAMP levels in CHO cells expressing human Beta-2-adrenoceptor; format: functional, cell-based
[6] = biological target: T1, Beta-3 adrenergic receptor; assay: Human Beta-3 adrenergic receptor intrinsic activity (IA) as maximal response relative to isoproterenol at […]; format: functional
Target sequence in this assay (P13945 whole entry, looked up): as the sequence (P13945 whole entry) above

[7] = biological target: T1, Beta-3 adrenergic receptor; assay: Beta-3 adrenergic receptor agonist activity as increased cAMP levels in CHO cells expressing human Beta-3-adrenoceptor; format: functional, cell-based
Target sequence in this assay (P13945 whole entry): as above

[8] = biological target: T3, Beta-2 adrenergic receptor; assay: Beta-2 adrenergic receptor agonist activity was determined by a measurement of increased cAMP levels in CHO cells expressing human Beta-2 adrenergic receptor; format: functional, cell-based
[9] = biological target: T1, Beta-3 adrenergic receptor; assay: Evaluated in vivo using transgenic mice containing the human Beta-3-Adrenoceptor and increase in themogenesis was determined; format: functional, organism-based; conditions: Mus musculus
Target sequence in this assay (P13945 whole entry, looked up): as the sequence (P13945 whole entry) above

[10] = biological target: T2, Beta-1 adrenergic receptor; assay: as §1; format: functional
Target sequence in this assay (P08588 whole entry): as the sequence (P08588 whole entry) above

[11] = biological target: T2, Beta-1 adrenergic receptor; assay: Human Beta-1 adrenergic receptor determined as the maximal response divided by the maximal response of isoproterenol at […].; format: functional
Target sequence in this assay (P08588 whole entry, looked up): as the sequence (P08588 whole entry) above

## CCCCCCCCNC(=O)Nc1ccc(S(=O)(=O)N2CCC(CNC[C@H](O)c3ccc4[nH]ccc4c3)CC2)cc1
[1]
  EC50: Not Active

## CS(=O)(=O)Nc1cc([C@@H](O)CNCC2CCN(S(=O)(=O)c3ccc(-n4cc(CC(=O)O)c5ccccc54)cc3)CC2)ccc1O
[2]
  Ki: 240 nM
[3]
  EC50: 30 nM
[4]
  Ki: 180 nM
[5]
  EC50: 30 nM
[6]
  Intrinsic activity: 0.96

## CS(=O)(=O)Nc1cc([C@@H](O)CNCC2CCN(S(=O)(=O)c3ccc(NC(=O)N[C@@H](Cc4ccccc4)C(=O)O)cc3)CC2)ccc1O
[3]
  EC50: 520 nM
[5]
  EC50: 20 nM
[6]
  Intrinsic activity: 1.2
[7]
  EC50: 31 nM

## CCCCCCCCNC(=O)Nc1ccc(S(=O)(=O)N2CCC(CNC[C@H](O)c3cc(NS(C)(=O)=O)c4[nH]ccc4c3)CC2)cc1
[1]
  EC50: Not Active

## CC(C)C[C@H](NC(=O)c1ccc(N2CCC(CNC[C@H](O)c3ccc(O)c(NS(C)(=O)=O)c3)CC2)cc1)C(=O)O
[3]
  EC50: 1860 nM
[5]
  EC50: 1000 nM
[6]
  Intrinsic activity: 1

## CS(=O)(=O)Nc1cc([C@@H](O)CNCC2CCN(c3ccc(C(=O)N[C@@H](CC(=O)O)C(=O)O)cc3)CC2)ccc1O
[3]
  EC50: 580 nM
[5]
  EC50: 5 nM
[6]
  Intrinsic activity: 0.95

## CS(=O)(=O)Nc1cc([C@@H](O)CNCC2CCN(S(=O)(=O)c3ccc(-n4ccc5c(C(=O)O)cccc54)cc3)CC2)ccc1O
[3]
  EC50: 50 nM
[5]
  EC50: 60 nM
[6]
  Intrinsic activity: 1

## CS(=O)(=O)Nc1cc([C@@H](O)CNCC2CCN(S(=O)(=O)c3ccc(-n4cc(C(=O)O)cn4)cc3)CC2)ccc1O
[3]
  EC50: 1000 nM
[5]
  EC50: 10 nM
[6]
  Intrinsic activity: 0.93

## CS(=O)(=O)Nc1cc([C@@H](O)CNCC2CCN(S(=O)(=O)c3ccc(NC(=O)NCc4cc(F)ccc4F)cc3)CC2)ccc1O
[8]
  EC50: 30 nM
[3]
  EC50: 3160 nM
[6]
  Intrinsic activity: 0.93
[7]
  EC50: 5 nM

## CCCCCCCCC(=O)Nc1ccc(S(=O)(=O)N2CCC(CNC[C@H](O)c3ccc(O)c(NS(C)(=O)=O)c3)CC2)cc1
[9]
  Increase: 10%
[3]
  EC50: 730 nM
[4]
  Ki: 140 nM
[5]
  EC50: 30 nM
[10]
  Ki: 6600 nM
[6]
  Intrinsic activity: 1
[7]
  EC50: 6 nM

## CS(=O)(=O)Nc1cc([C@@H](O)CNCC2CCN(c3ccc(C(=O)N[C@@H](Cc4ccccc4)C(=O)O)cc3)CC2)ccc1O
[11]
  Intrinsic activity: 0.6
[3]
  EC50: 520 nM
[5]
  EC50: 20000 nM
[6]
  Intrinsic activity: 1.2
[7]
  EC50: 31 nM

## CC(C)N(Cc1cc(F)ccc1F)C(=O)Nc1ccc(S(=O)(=O)N2CCC(CNC[C@H](O)c3ccc(O)c(NS(C)(=O)=O)c3)CC2)cc1
[3]
  EC50: 6300 nM
[5]
  EC50: 12 nM
[6]
  Intrinsic activity: 0.93
[7]
  EC50: 27 nM
